# From PMC3590450, “Analysis of substrate specificity and cyclin Y binding of PCTAIRE-1 kinase” (Cellular Signalling, 2012)
# Values joined by “and” are separate entries in the source; they are usually repeats but may differ in a detail not shown here. Equal values may be shown once.
# B1: HA-cyclin Y (natural protein, human, UniProt Q8ND76-1 1-341, looked up)
# chain: MGNTTSCCVSSSPKLRRNAHSRLESYRPDTDLSREDTGCNLQHISDRENIDDLNMEFNPSDHPRASTIFLSKSQTDVREKRKSLFINHHPPGQIARKYSSCSTIFLDDSTVSQPNLKYTIKCVALAIYYHIKNRDPDGRMLLDIFDENLHPLSKSEVPPDYDKHNPEQKQIYRFVRTLFSAAQLTAECAIVTLVYLERLLTYAEIDICPANWKRIVLGAILLASKVWDDQAVWNVDYCQILKDITVEDMNELERQFLELLQFNINVPSSVYAKYYFDLRSLAEANNLSFPLEPLSRERAHKLEAISRLCEDKYKDLRRSARKRSASADNLTLPRWSPAIIS
# What was measured:
# [1] = target: T1, GST–PCTAIRE-1 (Homo sapiens, UniProt Q00536); test: In vitro phosphotransferase (kinase) assay of purified GST–PCTAIRE-1 on peptide substrates; format: biochemical; settings: 1 μg GST–PCTAIRE-1, peptide 0-100 μM, mean ± SEM
# T1 construct: made in house; host or cells: HEK293 cells, transient transfection with pEBG6P
# T1 sequence (Q00536 whole entry): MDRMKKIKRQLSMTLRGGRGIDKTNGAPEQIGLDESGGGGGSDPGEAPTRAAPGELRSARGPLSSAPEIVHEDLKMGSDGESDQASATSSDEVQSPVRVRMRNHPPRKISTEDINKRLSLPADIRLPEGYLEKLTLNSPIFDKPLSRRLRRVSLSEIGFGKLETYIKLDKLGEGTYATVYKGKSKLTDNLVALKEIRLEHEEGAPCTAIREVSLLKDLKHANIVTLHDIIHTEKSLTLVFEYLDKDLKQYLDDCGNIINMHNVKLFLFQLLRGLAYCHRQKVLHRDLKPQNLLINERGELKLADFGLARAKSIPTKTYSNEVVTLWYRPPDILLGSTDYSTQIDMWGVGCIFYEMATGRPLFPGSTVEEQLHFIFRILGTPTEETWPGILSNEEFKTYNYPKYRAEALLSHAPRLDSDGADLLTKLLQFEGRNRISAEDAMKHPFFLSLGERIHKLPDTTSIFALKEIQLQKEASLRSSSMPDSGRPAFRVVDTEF
# Experimental: (§1) HEK293 cells were transfected with pEBG6P encoding GST-tagged human PCTAIRE-1 and harvested 36 h later as described above. GST–PCTAIRE-1 was isolated by batch-wise purification using Glutathione-Sepharose 4B. Briefly, lysates were incubated with equilibrated resin for 1 h at 4 °C, washed extensively with lysis buffer and eluted with 20 mM reduced glutathione in 50 mM Tris–HCl pH 8, 0.27 M sucrose, 0.1 mM EGTA and 1 mM DTT. Protein concentration was estimated by densitometry of Coomassie-stained gels using BSA standards. PCTAIRE-1 preparations were snap-frozen in N2(l) and stored at − 80 °C.
# (§2) Fig. 1 Determination of PCTAIRE-1 optimal substrate motif. […] (B) GST–PCTAIRE-1 WT/KD was prepared as described in (A) and the optimal substrate motif determined by positional scanning peptide library screening (PSPL) as described in Materials and methods. (C) The activity of GST–PCTAIRE-1 (1 μg) and CDK2–cyclin A2 (10 ng) was assayed against a panel of CDK-tide derivatives (concentration fixed at 250 μM) based on the results of the degenerate library screen (modifications are underlined). Results are expressed as mean ± SEM and are representative of 3 independent experiments.
# (§3) Purified rPCTAIRE-1, rCDK2–cyclin A2 or immune complexes isolated from cell/tissue lysates were assayed for phosphotransferase activity in a final assay volume of 50 μl containing 50 mM HEPES pH 7.5, 0.1 mM EGTA, 10 mM Mg(OAc)2, 0.1 mM [γ-^32P] ATP (300 CPM pmol^− 1), 1 mM DTT and the indicated concentrations of peptide substrate. Reactions were incubated at 30 °C and terminated by spotting onto P81 paper and immersion in 75 mM H3PO4. P81 filters were washed 3 × 10 min with H3PO4, rinsed with acetone, air-dried and incorporation of [γ-^32P] determined by Cherenkov counting. Results are expressed in U mg^− 1, where 1 U is defined as the incorporation of 1 nmol phosphate.min^− 1.
# (§4) Fig. 2 Optimisation of PCTAIRE-1 substrate peptide. The in vitro phosphotransferase activity of 1 μg GST–PCTAIRE-1 (A) and 10 ng CDK2–cyclin A2 (B) was determined using a panel of CDK-tide derivatives (modifications from the parental peptide are underlined). Peptide conc. was varied over the range 0 > 100 μM and substrate saturation curves were fitted by non-linear regression to the Michaelis–Menten model. Fitted parameters [Km (μM) and Vmax (mU mg^− 1)] are listed in the adjoining table. (C) Based on the CDK-tide optimisation, derivatives of NSF-tide were synthesised (modifications underlined) and assayed for PCTAIRE-1 activity as described in (A + B). 100% GST–PCTAIRE-1 = 164 mU mg^− 1 and 100% CDK2–[…] = 940 U mg^− 1. (D) PCTAIRE-1 was immunoprecipitated from 2 mg of HEK293 lysate and kinase activity determined using 250 μM CDK-tide or the optimised substrate, PKS*PKARKKL (PCTAIRE-tide) as described in Materials and methods. Results are expressed as mean ± SEM and are representative of 3 independent experiments. […]
# [2] = target: T2, CDK2–cyclin A2 (Homo sapiens, UniProt P20248+P24941); test: In vitro phosphotransferase (kinase) assay of rCDK2–cyclin A2 on peptide substrates; format: biochemical; settings: for CDK2-cyclin A2 Vmax: Fig. 2B table
# T2 construct: made in house; host or cells: Escherichia coli
# Experimental: PCTAIRE-1C-16 (sc-174) and PCTAIRE-1G6.1 (sc-53410) antibodies were from Santa Cruz Biotechnology. Cyclin Y antibody was from Proteintech. HA.11 (16B2) antibody was from Covance Research Products. The following antibodies were raised in sheep by the Division of Signal Transduction Therapy (DSTT, University of Dundee) against the indicated immunogens: PCTAIRE-1 (S552C, full length human 6×his-PCTAIRE-1), cyclin Y (S206D, full length human GST-cyclin Y). rCDK2–cyclin A2 was prepared by overexpression in Escherichia coli as previously described. Peptide substrates for kinase assays were synthesised by GL Biochem, and the peptide library was synthesised by Anaspec, Inc. [γ-^32P] ATP was from PerkinElmer. HRP-conjugated secondary antibodies were from Jackson Immunoresearch. Unless otherwise indicated all other reagents were from Sigma.
# as §2, §3, §4
# [3] = system: GST–PCTAIRE-1; test: In vitro phosphotransferase (kinase) assay of purified GST–PCTAIRE-1 on peptide substrates; format: biochemical, human; settings: GST–PCTAIRE-1 from HEK293 vs CDK2–cyclin A2 from E. coli; data not shown
# Experimental: as §1, §2, §3, §4
# [4] = target: FLAG-WT–PCTAIRE-1 (human, UniProt Q00536-1 1-496); test: cell-based or functional assay
# Chain of FLAG-WT–PCTAIRE-1 (Q00536 whole entry): as above
# [5] = CDK-tide derivatives, 10 ng CDK2–cyclin A2, peptide 0-100 μM, Michaelis–Menten fit, mean ± SEM
# [6] = Fig. 2B, CDK-tide derivatives, 10 ng CDK2–cyclin A2, peptide 0-100 μM, Michaelis–Menten fit, 0.1 mM [γ-32P]ATP, 30 °C, mean ± SEM, representative of 3 independent experiments
# [7] = Fig. 2A, CDK-tide derivatives, Michaelis–Menten fit, 0.1 mM [γ-32P]ATP, 30 °C, 1 U = 1 nmol phosphate min-1
# [8] = Fig. 2A, CDK-tide derivatives, Michaelis–Menten non-linear regression, 0.1 mM [γ-32P]ATP, 30 °C, P81 paper, representative of 3 independent experiments
molecule,measurement,setting,value
FIKICSPDKMIGRRR [peptide around Ser569 of human NSF with three extra C-terminal Arg],Km,"[1]; Fig. 2C, NSF-tide derivatives, Michaelis–Menten fit, 0.1 mM [γ-32P]ATP, 30 °C",15 ± 6 µM
same,GST-PCTAIRE-1 Vmax,"[1]; Fig. 2C, NSF-tide derivatives, Michaelis–Menten fit",34 ± 4 mU.mg^-1
"PKSPKARKKL [optimal PCTAIRE-1 substrate peptide …, modified from the parental CDK substrate peptide]",CDK2-cyclin A2 Vmax,[2]; [5],No fit
same,CDK2-cyclin A2 Km,[2]; [6],No fit
same,GST-PCTAIRE-1 Vmax,[1]; [7],550 ± 19 mU.mg^-1
same,GST-PCTAIRE-1 Vmax,"[1]; Fig. 2A, CDK-tide derivatives, Michaelis–Menten fit, 0.1 mM [γ-32P]ATP, 30 °C, 1 U = 1 nmol phosphate min-1, listed as PKSPKARKKL",~ 550 mU.mg^-1
same,Km,[1]; [8],4 ± 1 µM
same,Km,"[1]; Fig. 2A, CDK-tide derivatives, Michaelis–Menten non-linear regression, 0.1 mM [γ-32P]ATP, 30 °C, P81 paper, representative of 3 independent experiments, listed as PKSPKARKKL",~4 µM
PKTPKKAKKL [generic CDK substrate peptide … derived from CDK phosphorylation sites of histone H1],CDK2-cyclin A2 Vmax,[2]; [5],1100 ± 54 U.mg^-1
same,Km,[2]; [6],~20 µM and 19 µM
same,CDK2–cyclin A2 Vmax as stated in text,"[2]; running text on Fig. 2B, one range stated for TPKKR, SPKKA and TPKKA together",1100–1500 mU mg^− 1
same,GST-PCTAIRE-1 Vmax,[1]; [7],71 ± 7 mU.mg^-1
same,Km,[1]; [8],23 ± 6 µM
same,"Specific activity of PCTAIRE-1 towards the peptide, fold lower than that of CDK2–cyclin A2",[3],> 2000 fold
B1,"PCTAIRE-1 kinase activity of the immunoprecipitates towards 50 μM PCTAIRE-tide, with co-expressed cyclin Y against without",[4],> 100 fold
